Results reported in patent publication US12643871B2, “Aryl formamide compound containing chiral sulfur oxide or salt thereof, preparation method, herbicidal composition and use thereof” (Qingdao Kingagroot Chemical Compound Co., Ltd., priority 2019, dated 2026).

Key:
Echinochloa crusgali = assay: Weeding effect in post-emergence stage; format: in vivo; settings: 250 g/ha; 2 leaf stage; 15 days after application; fresh weight control rate
Text: (§1) The activity level criteria for harmful plant damage (i.e., growth control rate) are as follows: • Level 5: growth control rate is above 85%; • Level 4: growth control rate is greater than or equal to 60% and less than 85%; • Level 3: growth control rate is greater than or equal to 40% and less than 60%; • Level 2: growth control rate is greater than or equal to 20% and less than 40%; • Level 1: growth control rate is greater than or equal to 5% and less than 20%; • Level 0: growth control rate is less than 5%.
(§2) The above growth control rates are fresh weight control rates.
(§3) Experiment on weeding effect in post-emergence stage: monocotyledonous and dicotyledonous weed seeds (Descurainia sophia, Capsella bursa-pastoris, Galium aparine, Stellaria media, Lithospermum arvense, Rorippa indica, Alopecurus aequalis, Beckmannia syzigachne, Sclerochloa dura, Phleum paniculatum, Bromus japonicus, Aegilops tauschii, Phalaris arundinacea, Amaranthus retroflexus, Chenopodiaceae, Commelina communis, Sonchus arvensis, convolvulus arvensis, Cirsium setosum, Solanum nigrum, Acalypha australis, Digitaria sanguinalis, Echinochloa crusgalli, Setaria viridis, Setaria glauca, Leptochloa chinensis, Monochoria vaginalis, Sagittaria trifolia, Scirpus juncoides, Cyperus rotundus, Cyperus iria, Cyperus difformis, Fimbristylis, Portulaca oleracea, Xanthium sibiricum, Pharbitis nil) and major crop seeds (wheat, corn, rice, soybean, cotton, oilseed rape, millet, sorghum, potato, sesame, ricinus) were placed in plastic pots filled with soil, then covered with 0.5-2 cm of soil, allowed to grow in a good greenhouse environment. After 2 weeks of sowing, the test plants were treated in the 2 leaf stage. The tested compounds of the present invention were respectively dissolved in acetone, then added with Tween 80 and 1.5 liter/ha of emulsifiable concentrate of methyl oleate as synergist, diluted with a certain amount of water to obtain a solution with a certain concentration, and sprayed with a spray tower onto the plants. After the application, the plants were cultured for 15 days in the greenhouse, and then the experimental results of the weeding were counted. The doses of the used compounds were 500, 250, 125, 60, 30, 15 g/ha, and the averages were obtained by repeating for three times.

Amaranthus retroflexus = assay: Weeding effect in post-emergence stage; format: in vivo; settings: 250 g/ha; 2 leaf stage; 15 days after application; fresh weight control rate
Text: as §1, §2, §3

SMILES	weeding effect in post-emergence stage, activity level (growth control rate), Echinochloa crusgali (Echinochloa crusgali)	weeding effect in post-emergence stage, activity level (growth control rate), Amaranthus retroflexus (Amaranthus retroflexus)
COc1c(C(=O)Nc2nnc(C)o2)ccc(C(F)(F)F)c1[S@+]([O-])CCO[Si](C)(C)C(C)(C)C [Compound 349]	5 (Level 5: growth control rate is above 85%)	5 (Level 5: growth control rate is above 85%)
CC[S@@+]([O-])c1c(C(F)(F)F)ccc(C(=O)N(C(=O)c2cn(C)nc2C)c2nnc(C)o2)c1F [Compound 223]	5 (Level 5: growth control rate is above 85%)	5 (Level 5: growth control rate is above 85%)
CC[S@@+]([O-])c1c(C(F)(F)F)ccc(C(=O)N(C(=O)OC)c2nnc(C)o2)c1F [Compound 231]	5 (Level 5: growth control rate is above 85%)	5 (Level 5: growth control rate is above 85%)
Cc1nnc(NC(=O)c2ccc(S(C)(=O)=O)c([S@+]([O-])CC(C)F)c2C)o1 (some centres unmarked) [Compound 501]	5 (Level 5: growth control rate is above 85%)	5 (Level 5: growth control rate is above 85%)
CC[S@@+]([O-])c1c(C)ccc(C(=O)Nc2nnc(C)o2)c1C [Compound 481]	5 (Level 5: growth control rate is above 85%)	5 (Level 5: growth control rate is above 85%)
Cc1c(C(=O)Nc2nnnn2C)ccc(S(C)(=O)=O)c1[S@+]([O-])CC(C)C [Compound 515]	5 (Level 5: growth control rate is above 85%)	5 (Level 5: growth control rate is above 85%)
COC(=O)CC[S@@+]([O-])c1c(C(F)(F)F)ccc(C(=O)Nc2nnc(C)o2)c1OC [Compound 354]	5 (Level 5: growth control rate is above 85%)	5 (Level 5: growth control rate is above 85%)
CCCCCCC[S@@+]([O-])c1c(C(F)(F)F)ccc(C(=O)Nc2nnc(C)o2)c1F [Compound 14]	5 (Level 5: growth control rate is above 85%)	5 (Level 5: growth control rate is above 85%)
Cc1nnc(NC(=O)c2ccc(S(C)(=O)=O)c([S@+]([O-])CC(F)(F)F)c2C)o1 [Compound 500]	5 (Level 5: growth control rate is above 85%)	5 (Level 5: growth control rate is above 85%)
Cc1nnc(NC(=O)c2ccc(C(F)(F)F)c([S@+]([O-])CC=O)c2F)o1 [Compound 191]	5 (Level 5: growth control rate is above 85%)	5 (Level 5: growth control rate is above 85%)
COc1c(C(=O)Nc2nnc(C)o2)ccc(C(F)(F)F)c1[S@+]([O-])Cc1cn(C)nc1C [Compound 356]	5 (Level 5: growth control rate is above 85%)	5 (Level 5: growth control rate is above 85%)
CCC[S@@+]([O-])c1c(S(C)(=O)=O)ccc(C(=O)Nc2nnc(C)o2)c1C [Compound 492]	5 (Level 5: growth control rate is above 85%)	5 (Level 5: growth control rate is above 85%)
CCC[S@@+]([O-])c1c(S(C)(=O)=O)ccc(C(=O)Nc2nnnn2C)c1C [Compound 512]	5 (Level 5: growth control rate is above 85%)	5 (Level 5: growth control rate is above 85%)
CCC[S@@+]([O-])c1c(C)ccc(C(=O)Nc2nnc(C)o2)c1C [Compound 482]	5 (Level 5: growth control rate is above 85%)	5 (Level 5: growth control rate is above 85%)
Cc1nnc(NC(=O)c2ccc(S(C)(=O)=O)c([S@@+](C)[O-])c2C)o1 [Compound 491]	5 (Level 5: growth control rate is above 85%)	5 (Level 5: growth control rate is above 85%)
COc1c(C(=O)Nc2nnc(C)o2)ccc(C(F)(F)F)c1[S@+]([O-])CC(C)=O [Compound 351]	5 (Level 5: growth control rate is above 85%)	5 (Level 5: growth control rate is above 85%)
Cc1nnc(NC(=O)c2ccc(C(F)(F)F)c([S@+]([O-])CCC(C)(C)C)c2F)o1 [Compound 13]	5 (Level 5: growth control rate is above 85%)	5 (Level 5: growth control rate is above 85%)
Cc1nnc(NC(=O)c2ccc(C(C)C)c([S@@+](C)[O-])c2C)o1 [Compound 486]	5 (Level 5: growth control rate is above 85%)	5 (Level 5: growth control rate is above 85%)
C=CC[S@@+]([O-])c1c(S(C)(=O)=O)ccc(C(=O)Nc2nnc(C)o2)c1C [Compound 496]	5 (Level 5: growth control rate is above 85%)	5 (Level 5: growth control rate is above 85%)
CC[S@@+]([O-])c1c(C(F)(F)F)ccc(C(=O)Nc2nnc(C(C)C)o2)c1OC [Compound 425]	5 (Level 5: growth control rate is above 85%)	5 (Level 5: growth control rate is above 85%)
C#CC[S@@+]([O-])c1c(S(C)(=O)=O)ccc(C(=O)Nc2nnnn2C)c1C [Compound 517]	5 (Level 5: growth control rate is above 85%)	5 (Level 5: growth control rate is above 85%)
Cc1nnc(NC(=O)c2ccc(C(F)(F)F)c([S+]([O-])C#N)c2F)o1 (centres unmarked) [Compound 51]	5 (Level 5: growth control rate is above 85%)	5 (Level 5: growth control rate is above 85%)
CCCCn1nnnc1NC(=O)c1ccc(C(F)(F)F)c([S@+]([O-])CC)c1OC [Compound 448]	5 (Level 5: growth control rate is above 85%)	5 (Level 5: growth control rate is above 85%)
COc1c(C(=O)Nc2nnc(C)o2)ccc(C(F)(F)F)c1[S+]([O-])COC(=O)C(C)(C)C (centres unmarked) [Compound 355]	5 (Level 5: growth control rate is above 85%)	5 (Level 5: growth control rate is above 85%)
C#CC[S@@+]([O-])c1c(S(C)(=O)=O)ccc(C(=O)Nc2nnc(C)o2)c1C [Compound 497]	5 (Level 5: growth control rate is above 85%)	5 (Level 5: growth control rate is above 85%)
CC[S@@+]([O-])c1c(C(F)(F)F)ccc(C(=O)Nc2ncnn2C)c1OC [Compound 471]	5 (Level 5: growth control rate is above 85%)	5 (Level 5: growth control rate is above 85%)
Cc1nnc(NC(=O)c2ccc(S(C)(=O)=O)c([S@+]([O-])CC3CC3)c2C)o1 [Compound 498]	5 (Level 5: growth control rate is above 85%)	5 (Level 5: growth control rate is above 85%)
CC(=O)C[S@@+]([O-])c1c(C(F)(F)F)ccc(C(=O)Nc2nnc(C)o2)c1F [Compound 193]	5 (Level 5: growth control rate is above 85%)	5 (Level 5: growth control rate is above 85%)
